“And” between values parts separate entries of the source, which are not always exact repeats. Equal values may be shown once. Read-outs that look alike come from different tables or passages of the source.
How the values were obtained:
[1] = Interaction with the stable free radical DPPH (reducing activity); conditions: 100 μM
Procedure: The first assay refers to the interaction of the compounds with the stable free radical DPPH and it is a fast, simple, cost-effective, and widely used method, where the DPPH radical reacts directly with the antioxidant and is decolorized. This interaction indicates their radical scavenging ability in an iron-free system. The scavenging effect of the synthesized analogues on the DPPH radical was evaluated according to the methods of Hadjipavlou et al..
To an ethanolic solution of DPPH (100 μM) in absolute ethanol, an equal volume of the compounds dissolved in DMSO was added (100 μM). […]

soybean lipoxygenase = biological target: T1, soybean lipoxygenase (Glycine max, UniProt P08170); experiment: Soybean LOX inhibition study in vitro; type: biochemical; conditions: for inhibition at 100 µM: read-out: Inhibition of Soybean Lipoxygenase 100 μM (%), at 100 μM
T1 sequence (P08170 1-839): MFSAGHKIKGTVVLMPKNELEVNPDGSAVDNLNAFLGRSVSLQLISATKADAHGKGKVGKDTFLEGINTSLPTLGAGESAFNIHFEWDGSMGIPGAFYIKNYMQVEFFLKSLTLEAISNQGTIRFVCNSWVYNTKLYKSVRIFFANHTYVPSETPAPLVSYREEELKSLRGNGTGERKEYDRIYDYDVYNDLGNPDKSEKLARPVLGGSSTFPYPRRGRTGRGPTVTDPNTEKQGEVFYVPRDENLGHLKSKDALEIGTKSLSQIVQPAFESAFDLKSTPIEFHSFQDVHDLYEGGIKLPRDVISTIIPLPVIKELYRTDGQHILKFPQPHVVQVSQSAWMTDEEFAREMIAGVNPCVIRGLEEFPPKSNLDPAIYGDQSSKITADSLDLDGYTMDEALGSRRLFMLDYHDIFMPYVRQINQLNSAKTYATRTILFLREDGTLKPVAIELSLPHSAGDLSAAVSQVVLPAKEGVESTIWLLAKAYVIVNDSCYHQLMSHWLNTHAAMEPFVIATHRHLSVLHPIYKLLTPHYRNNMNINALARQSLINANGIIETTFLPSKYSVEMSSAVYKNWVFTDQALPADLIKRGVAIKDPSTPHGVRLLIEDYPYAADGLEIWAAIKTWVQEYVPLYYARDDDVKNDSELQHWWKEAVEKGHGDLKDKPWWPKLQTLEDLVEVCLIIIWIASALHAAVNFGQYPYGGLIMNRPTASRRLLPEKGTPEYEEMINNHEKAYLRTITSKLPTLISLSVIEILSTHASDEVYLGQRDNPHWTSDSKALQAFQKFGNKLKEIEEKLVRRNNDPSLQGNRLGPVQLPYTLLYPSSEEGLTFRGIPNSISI
Procedure: Furthermore, as an indication of their anti-inflammatory activity, all the molecules were tested as inhibitors of soybean lipoxygenase (LOX). The enzyme lipoxygenase catalyzes the first two steps in the metabolism of arachidonic acid, which is cleaved from membrane phospholipids to leukotrienes (LTB4). LTB4 generation is considered to be important in the pathogenesis of neutrophil-mediated inflammatory diseases. For this study, the UV absorbance-based soybean LOX assay was used, which is a plant enzyme with satisfactory homology with the human 5-LOX [61, 62, 63, 64, 65, 66].
The tested compounds dissolved in DMSO were incubated at room temperature with sodium linoleate (0.1 mL) and 0.2 mL of enzyme solution ([…] in saline) in Tris buffer pH 9.

[2] = Inhibition of linoleic acid lipid peroxidation induced by AAPH
Description: The second technique is based on the ability of the compounds to inhibit lipid peroxidation of linoleic acid induced by 2,2′-Azobis(2-amidinopropane) dihydrochloride (AAPH) radical (Table 2). AAPH-induced linoleic acid oxidation has been developed as a quick and reliable method for measuring the antioxidant activity. The thermal free radical producer (AAPH) generates free radicals in the solution which cause the oxidation of linoleic acid, and the method is a measure of how effective antioxidants protect against lipid peroxidation in vitro. Oxidation of linoleic acid by AAPH is followed by UV spectrophotometry in a highly diluted sample [61].
2,2′-Azobis(2-amidinopropane) dihydrochloride (AAPH) was used as a free radical initiator. Ten microliters of the 16 mM linoleic acid sodium salt solution was added to the UV cuvette containing 0.93 mL of 0.05 M phosphate buffer, pH 7.4 prethermostated at 37 °C. The oxidation reaction was initiated at 37 °C under air by the addition of 50 μL of 40 mM AAPH solution. Oxidation was carried out in the presence of the synthesized compounds (10 μL, from a stock solution of 10 mM in DMSO). In the assay without antioxidant, lipid oxidation was measured in the presence of the same level of DMSO.

[3] = read-out: Inhibition of Soybean Lipoxygenase IC50

IC50 (soybean lipoxygenase; [3]) [µM]	Structure (SMILES)	Interaction with the Free Radical DPPH (%) ([1]; 60 min)	Inhibition of Lipid Peroxidation of Linoleic Acid Induced by AAPH Radical (%) ([2]; 100 μM)	Interaction with the Free Radical DPPH (%) ([1]; 20 min)	IC50 (soybean lipoxygenase) [µM]	Inhibition of Lipid Peroxidation of Linoleic Acid Induced by AAPH Radical (%) ([2]; 0 min)	Inhibition of Lipid Peroxidation of Linoleic Acid Induced by AAPH Radical (%) ([2]; 3 min)	Inhibition of Lipid Peroxidation of Linoleic Acid Induced by AAPH Radical (%) ([2]; 6 min)	Inhibition of Lipid Peroxidation of Linoleic Acid Induced by AAPH Radical (%) ([2]; 9 min)	inhibition at 100 µM (soybean lipoxygenase) [%]
55	COCOc1ccc(/C=C/C(=O)c2cc(Br)ccc2O)cc1OCOC [Compound 3h, 5′-bromo-3,4-dimethoxymethoxy-2′-hydroxy-chalcone]	6.0%	65.6%							
	O=C(/C=C/c1ccccc1)c1ccccc1O [Compound 3l, 2′-hydroxy-chalcone]	no	87.6%	no	100	87.6	93.2	95.7	94.3	
67.5	COCOc1ccc(/C=C/C(=O)c2cc(Br)cc(Br)c2O)cc1OCOC [Compound 3i, 3′,5′-bromo-3,4-dimethoxymethoxy-2′-hydroxy-chalcone]	no	93.0%	totally inactive and no		95.6	98.6	96.9	99.2	
67.5	O=C(O)c1ccc(/C=C/C(=O)c2cc(Cl)ccc2O)cc1 [Compound 3k, 4-carboxy-5′-chloro-2′-hydroxy-chalcone]	no	no	no						
100	O=C(O)c1ccc(/C=C/C(=O)c2ccccc2O)cc1 [Compound 3j, 4-carboxy-2′-hydroxy-chalcone]	no	no	no						
45	COCOc1ccc(C(=O)/C=C/c2cc(OC)c(OC)cc2OC)c(O)c1 [Compound 3c, 2′-hydroxy-4′-methoxymethoxy-2,4,5-trimethoxy-chalcone]	2.3%	39.4%	no						
	COc1ccc(/C=C/C(=O)c2cc(Br)ccc2O)cc1OC [Compound 3f, 5′-bromo-3,4-dimethoxy-2′-hydroxy-chalcone]	no	inactive and no	totally inactive and no						38
	COc1ccc(/C=C/C(=O)c2cc(Cl)ccc2O)cc1OC [Compound 3d, 5′-chloro-3,4-dimethoxy-2′-hydroxy-chalcone]	no	no	no						32
	C[C@H](Cc1ccc(O)c(O)c1)[C@@H](C)Cc1ccc(O)c(O)c1 [NDGA, Nordihydroguaiaretic acid, reference compound]	93.0%		87.0%						

Structure (SMILES)	IC50 (soybean lipoxygenase; [3]) [µM]	Interaction with the Free Radical DPPH (%) ([1]; 60 min)	Inhibition of Lipid Peroxidation of Linoleic Acid Induced by AAPH Radical (%) ([2]; 100 μM)	Interaction with the Free Radical DPPH (%) ([1]; 20 min)	IC50 (soybean lipoxygenase) [µM]	Inhibition of Lipid Peroxidation of Linoleic Acid Induced by AAPH Radical (%) ([2]; 0 min)	Inhibition of Lipid Peroxidation of Linoleic Acid Induced by AAPH Radical (%) ([2]; 3 min)	Inhibition of Lipid Peroxidation of Linoleic Acid Induced by AAPH Radical (%) ([2]; 6 min)	Inhibition of Lipid Peroxidation of Linoleic Acid Induced by AAPH Radical (%) ([2]; 9 min)	inhibition at 100 µM (soybean lipoxygenase) [%]
COc1ccc(/C=C/C(=O)c2cc(Br)cc(Br)c2O)cc1OC [Compound 3g, 3′,5′-dibromo-3,4-dimetoxy-2′-hydroxy-chalcone]	68.5	no	inactive and 31.0%	totally inactive and no						
COc1cccc(/C=C/C(=O)c2cc(Cl)ccc2O)c1OC [Compound 3e, 5′-chloro-2,3-dimethoxy-2′-hydroxy-chalcone]	100	no	20.0%	no						
